The record followed here is patent publication US7345009B2, “Substituted 4-hetaryl-pyrazolines as pest control agents” (Bayer CropScience AG, priority 2002, dated 2008).

The nature of data set [1]: logP determination by reversed-phase HPLC (EEC directive 79/831 Annex V.A8), pH 2.3. Type of data set: physicochemical. Conditions: reversed-phase HPLC column (C18), HPLC C18, 43° C., Preparation Examples. The protocol:
The logP values given in the tables and Preparation Examples above are determined in accordance with EEC directive 79/831 Annex V.A8 by HPLC (High Performance Liquid Chromatography) using a reversed-phase column (C 18). Temperature: 43° C.
The determination is carried out in the acidic range at pH 2.3 using the mobile phases 0.1% aqueous phosphoric acid and acetonitrile; linear gradient from 10% acetonitrile to 90% acetonitrile.
Calibration is carried out using unbranched alkan-2-ones (of 3 to 16 carbon atoms) with known logP values (determination of the logP values by retention times using linear interpolation between two successive alkanones).

Data set [2] has as its system caterpillars of the cotton bud worm (Heliothis armigera). As to the kind of experiment: Heliothis armigera test (Example A). Type of data set: in vivo. Conditions: 500 ppm active compound; after 7 days; soya bean shoots dipped. The protocol:
(§1) Solvent: 7 parts by weight of dimethylformamide
(§2) Emulsifier: 2 parts by weight of alkylaryl polyglycol ether
(§3) To produce a suitable preparation of active compound, 1 part by weight of active compound is mixed with the stated amounts of solvent and emulsifier, and the concentrate is diluted with emulsifier-containing water to the desired concentration.
Soya bean shoots (Glycine max) are treated by being dipped into the preparation of active compound of the desired concentration and are populated with caterpillars of the cotton bud worm (Heliothis armigera) while the leaves are still moist.
(§4) After the desired period of time, the kill in % is determined. 100% means that all caterpillars have been killed; 0% means that none of the caterpillars have been killed.

For data set [3], the system named is larvae of the mustard beetle (Phaedon cochleariae). Briefly: Phaedon larvae test (Example C). Type of data set: in vivo. Conditions: 500 ppm active compound; after 7 days; cabbage leaves dipped. The protocol:
Phaedon larvae Test Solvent: 7 parts by weight of dimethylformamide Emulsifier: 2 parts by weight of alkylaryl polyglycol ether To produce a suitable preparation of active compound, 1 part by weight of active compound is mixed with the stated amounts of solvent and emulsifier, and the concentrate is diluted with emulsifier-containing water to the desired concentration. Cabbage leaves (Brassica oleracea) are treated by being dipped into the preparation of active compound of the desired concentration and are populated with larvae of the mustard beetle (Phaedon cochleariae) while the leaves are still moist.

Data set [4] relates to caterpillars of the diamondback moth (Plutella xylostella). Briefly: Plutella test, cabbage leaf dip (Example D). Type of data set: in vivo. Conditions: 500 ppm active compound; after 7 days; cabbage leaves dipped. The protocol:
as §1, §2, §3
Cabbage leaves (Brassica oleracea) are treated by being dipped into the preparation of active compound of the desired concentration and are populated with caterpillars of the diamondback moth (Plutella xylostella) while the leaves are still moist.
as §4

The test system of data set [5] is caterpillars of the army worm (Spodoptera exigua). As to the kind of experiment: Spodoptera exigua test (Example E). Type of data set: in vivo. Conditions: 500 ppm active compound; after 7 days; cabbage leaves dipped. The protocol:
as §1, §2, §3
Cabbage leaves (Brassica oleracea) are treated by being dipped into the preparation of active compound of the desired concentration and are populated with caterpillars of the army worm (Spodoptera exigua) while the leaves are still moist.
as §4

Data set [6] has as its system caterpillars of the army worm (Spodoptera frugiperda). As to the kind of experiment: Spodoptera frugiperda test (Example F). Type of data set: in vivo. The note with it: 500 ppm active compound; after 7 days; cabbage leaves dipped. The protocol: Spodoptera frugiperda Test
as §1, §2, §3
Cabbage leaves (Brassica oleracea) are treated by being dipped into the preparation of active compound of the desired concentration and are populated with caterpillars of the army worm (Spodoptera frugiperda) while the leaves are still moist.
as §4

Data set [7] relates to Heliothis virescens caterpillars. As to the kind of experiment: Heliothis virescens test (Example B). Type of data set: in vivo. The note with it: 500 ppm active compound; after 7 days; soya bean shoots dipped. The protocol: as §1, §2, §3
Soya bean shoots (Glycine max) are treated by being dipped into the preparation of active compound of the desired concentration and are populated with Heliothis virescens caterpillars while the leaves are still moist.
as §4

For orientation: chromatographic logP means a lipophilicity value derived from retention on a column. The low end stands for lower lipophilicity, the high end for higher lipophilicity. In data set [1], `Cc1nnn(C2CNN=C2c2ccc(Cl)cc2)n1` (centres unmarked) [3-(4-chlorophenyl)-4-(5-methyltetrazol-2-yl)-4,5-dihydro-1H-pyrazole] returned a chromatographic logP of 2.11.
The same measure, in the same setting: in the case of `Cn1nnc(CC(=O)c2ccc(Cl)cc2)n1` [2-(2-methyltetrazol-5-yl)-4′-chloroacetophenone] it was 2.03.
Take `O=C(Cc1nn[nH]n1)c1ccc(Cl)cc1` [2-tetrazol-5-yl-4′-chloroacetophenone]: the chromatographic logP in data set [1] amounted to 1.44.
`Cn1nnnc1CC(=O)c1ccc(Cl)cc1` [2-(1-methyltetrazol-5-yl)-4′-chloroacetophenone] gave a chromatographic logP in data set [1] of 1.78.
In data set [1], `Cc1nnc(C2CN(C(=O)Nc3ccc(OC(F)(F)F)cc3)N=C2c2ccc(Cl)cc2)s1` (centres unmarked) [Example 4, N-(4-trifluoromethoxy)-3-(4-chlorophenyl)-4-(5-methyl-1,3,4-thiadiazol-2-yl)-4,5-dihydro-1-pyrazolecarboxanilide] returned a chromatographic logP of 3.77. The kill in data set [2], in data set [3], in data set [4], in data set [5] and in data set [6] was 100% in each case.
The compound `Cc1nnc(C2CNN=C2c2ccc(Cl)cc2)s1` (centres unmarked) [3-(4-chlorophenyl)-4-(2-methyl-1,3,4-thiadiazol-5-yl)-4,5-dihydro-1H-pyrazole] showed a chromatographic logP in data set [1] of 1.77.
In data set [1], `Cc1nnnn1CC(=O)c1ccc(Cl)cc1` [2-(5-methyltetrazol-1-yl)-4′-chloroacetophenone] displayed a chromatographic logP of 1.81.
In the case of `Cc1nnn(C2CN(C(=O)N(CC#N)c3ccc(OC(F)(F)F)cc3)N=C2c2ccc(Cl)cc2)n1` (centres unmarked) [Example 2, N-cyanomethyl-N-trifluoromethoxy-3-(4-chlorophenyl)-4-(5-methyltetrazol-2-yl)-4,5-dihydro-1-pyrazolecarboxanilide], the chromatographic logP in data set [1] was determined as 3.68. For the same compound, the kill in data set [2], in data set [3], in data set [4], in data set [5] and in data set [6] was 100% each time.
In data set [1], `Cc1nnn(C2CN(C(=O)Nc3ccc(OC(F)(F)F)cc3)N=C2c2ccc(Cl)cc2)n1` (centres unmarked) [Example 1, N-(4-trifluoromethoxy)-3-(4-chlorophenyl)-4-(5-methyltetrazol-2-yl)-4,5-dihydro-1-pyrazolecarboxanilide] gave a chromatographic logP of 4. The kill in data set [7], in data set [3], in data set [4], in data set [5] and in data set [6] was 100% each time.
`Cn1nnc(C2CNN=C2c2ccc(Cl)cc2)n1` (centres unmarked) [3-(4-chlorophenyl)-4-(2-methyltetrazol-5-yl)-4,5-dihydro-1H-pyrazole]: the chromatographic logP in data set [1] turned out to be 1.67.
Take `Cc1nnn(CC(=O)c2ccc(Cl)cc2)n1` [2-(5-methyltetrazol-2-yl)-4′-chloroacetophenone]: in data set [1], the chromatographic logP was 2.14.
